Experimental data taken from patent US9844550B2, “Phtalazinone derivatives and manufacturing process thereof” (ILDONG PHARM CO., LTD., priority 2013, dated 2017).

Test system: MDA-MB-436 breast cancer cell line
Assay: Cell viability assay (MDA-MB-436)
Assay type: cell-based
Conditions: Homo sapiens, 144 h; MDA-MB-436 cells, treated 6 days
Method: 2. Cell Viability Assay (MDA-MB-436)
Cell viability assay was performed by using MDA-MB-436 cell line to measure cytotoxicity of compounds in the present invention. MDA-MB-436 breast cancer cell line was seeded into 96-well plates at 37° C. under 5% CO2 atmosphere using DMEM/F12 (Gibco) containing 10% FBS (Hyclone). After 24 hr incubation, cells were treated with the invented compounds at various concentrations for 6 days. The medium was changed every 3 day. 6 days later, A fluorescence reagent was used to determine the IC50 values.

Row | IC50 [nM] | Compound
1 | 50 to 300 | CC(C)(CO)CNC1CN(C(=O)c2cc(Cc3n[nH]c(=O)c4ccccc34)ccc2F)C1 [Compound I-93, 4-(4-fluoro-3-(3-((3-hydroxy-2,2-dimethylpropyl)amino)azetidine-1-carbonyl)benzyl)phthalazin-1(2H)-one]
2 | 5 to 50 | O=C(c1cc(Cc2n[nH]c(=O)c3ccccc23)ccc1F)N1CC[C@@H](N2CCCC2)C1 [Compound I-136, (R)-4-(3-([1,3′-bipyrrolidine]-1′-carbonyl)-4-fluorobenzyl)phthalazin-1(2H)-one]
3 | 5 to 50 | O=C(c1cc(Cc2n[nH]c(=O)c3ccccc23)ccc1F)N1CC(N2CCC(F)CC2)C1 [Compound I-74, 4-(4-fluoro-3-(3-(4-fluoropiperidin-1-yl)azetidine-1-carbonyl)benzyl)phthalazin-1(2H)-one]
4 | 300 to 1000 | C[C@H](NC1CN(C(=O)c2cc(Cc3n[nH]c(=O)c4ccccc34)ccc2F)C1)C(C)(C)C [Compound I-87, (S)-4-(3-(3-((3,3-dimethylbutan-2-yl)amino)azetidine-1-carbonyl)-4-fluorobenzyl)phthalazin-1(2H)-one]
5 | 50 to 300 | C#CCNC1CN(C(=O)c2cc(Cc3n[nH]c(=O)c4ccccc34)ccc2F)C1 [Compound I-81, 4-(4-fluoro-3-(3-(prop-2-yn-1-ylamino)azetidine-1-carbonyl)benzyl)phthalazin-1(2H)-one]
6 | 300 to 1000 | CN1CCN(C2CN(C(=O)c3cc(Cc4n[nH]c(=O)c5ccccc45)ccc3F)C2)CC1 [Compound I-78, 4-(4-fluoro-3-(3-(4-methylpiperazin-1-yl)azetidine-1-carbonyl)benzyl)phthalazin-1(2H)-one]
7 | 5 to 50 | O=C(c1cc(Cc2n[nH]c(=O)c3ccccc23)ccc1F)N1CC(NC(C2CC2)C2CC2)C1 [Compound I-45, 4-(3-(3-((dicyclopropylmethyl)amino)azetidine-1-carbonyl)-4-fluorobenzyl)phthalazin-1(2H)-one]
8 | 300 to 1000 | N#CC1(NC2CN(C(=O)c3cc(Cc4n[nH]c(=O)c5ccccc45)ccc3F)C2)CCCC1 [Compound I-98, 1-((1-(2-fluoro-5-((4-oxo-3,4-dihydrophthalazin-1-yl)methyl)benzoyl)azetidin-3-yl)amino)cyclopentanecarbonitrile]
9 | 50 to 300 | O=C(c1cc(Cc2n[nH]c(=O)c3ccccc23)ccc1F)N1CC(NCC(F)(F)F)C1 [Compound I-95, 4-(4-fluoro-3-(3-((2,2,2-trifluoroethyl)amino)azetidine-1-carbonyl)benzyl)phthalazin-1(2H)-one]
10 | 50 to 300 | O=C(c1cc(Cc2n[nH]c(=O)c3ccccc23)ccc1F)N1CC(N2CCC(F)(F)C2)C1 [Compound I-73, 4-(3-(3-(3,3-difluoropyrrolidin-1-yl)azetidine-1-carbonyl)-4-fluorobenzyl)phthalazin-1(2H)-one]
11 | 5 to 50 | C=C(C)CNC1CN(C(=O)c2cc(Cc3n[nH]c(=O)c4ccccc34)ccc2F)C1 [Compound I-92, 4-(4-fluoro-3-(3-((2-methylallyl)amino)azetidine-1-carbonyl)benzyl)phthalazin-1(2H)-one]
12 | 50 to 300 | C#CCCNC1CN(C(=O)c2cc(Cc3n[nH]c(=O)c4ccccc34)ccc2F)C1 [Compound I-91, 4-(3-(3-(but-3-yn-1-ylamino)azetidine-1-carbonyl)-4-fluorobenzyl)phthalazin-1(2H)-one]
13 | 50 to 300 | CC(CNC1CN(C(=O)c2cc(Cc3n[nH]c(=O)c4ccccc34)ccc2F)C1)C(F)(F)F (centres unmarked) [Compound I-50, 4-(4-fluoro-3-(3-((3,3,3-trifluoro-2-methylpropyl)amino)azetidine-1-carbonyl)benzyl)phthalazin-1(2H)-one]
14 | 5 to 50 | O=C(c1cc(Cc2n[nH]c(=O)c3ccccc23)ccc1F)N1CC(N2CCCC2)C1 [Compound I-76, 4-(4-fluoro-3-(3-(pyrrolidin-1-yl)azetidine-1-carbonyl)benzyl)phthalazin-1(2H)-one]
15 | 300 to 1000 | Cc1ccc(N[C@@H]2CCN(C(=O)c3cc(Cc4n[nH]c(=O)c5ccccc45)ccc3F)C2)cc1 [Compound I-138, (R)-4-(4-fluoro-3-(3-(p-tolylamino)pyrrolidine-1-carbonyl)benzyl)phthalazin-1(2H)-one]
16 | 50 to 300 | O=C(c1cc(Cc2n[nH]c(=O)c3ccccc23)ccc1F)N1CC[C@@H](Nc2nccs2)C1 [Compound I-124, (R)-4-(4-fluoro-3-(3-(thiazol-2-ylamino)pyrrolidine-1-carbonyl)benzyl)phthalazin-1(2H)-one]
17 | 50 to 300 | O=C(c1cc(Cc2n[nH]c(=O)c3ccccc23)ccc1F)N1CC(NCc2ccccc2)C1 [Compound I-133, 4-(3-(3-(benzylamino)azetidine-1-carbonyl)-4-fluorobenzyl)phthalazin-1(2H)-one]
18 | 50 to 300 | O=C(c1cc(Cc2n[nH]c(=O)c3ccccc23)ccc1F)N1CC(Nc2ccccc2)C1 [Compound I-79, 4-(4-fluoro-3-(3-(phenylamino)azetidine-1-carbonyl)benzyl)phthalazin-1(2H)-one]
19 | 5 to 50 | O=C(c1cc(Cc2n[nH]c(=O)c3ccccc23)ccc1F)N1CC(NCCC2CC2)C1 [Compound I-58, 4-(3-(3-((2-cyclopropylethyl)amino)azetidine-1-carbonyl)-4-fluorobenzyl)phthalazin-1(2H)-one]
20 | 300 to 1000 | CN(c1cccnn1)[C@H]1CCN(C(=O)c2cc(Cc3n[nH]c(=O)c4ccccc34)ccc2F)C1 [Compound I-113, (S)-4-(4-fluoro-3-(3-(methyl(pyridazin-3-yl)amino)pyrrolidine-1-carbonyl)benzyl)phthalazin-1(2H)-one]
21 | 300 to 1000 | N#CC(NC1CN(C(=O)c2cc(Cc3n[nH]c(=O)c4ccccc34)ccc2F)C1)C1CC1 (centres unmarked) [Compound I-103, 2-cyclopropyl-2-((1-(2-fluoro-5-((4-oxo-3,4-dihydrophthalazin-1-yl)methyl)benzoyl)azetidin-3-yl)amino)acetonitrile]
22 | 300 to 1000 | CC(C)C(C#N)NC1CN(C(=O)c2cc(Cc3n[nH]c(=O)c4ccccc34)ccc2F)C1 (centres unmarked) [Compound I-102, 2-((1-(2-fluoro-5-((4-oxo-3,4-dihydrophthalazin-1-yl)methyl)benzoyl)azetidin-3-yl)amino)-3-methylbutanenitrile]
23 | 50 to 300 | COCC1(NC2CN(C(=O)c3cc(Cc4n[nH]c(=O)c5ccccc45)ccc3F)C2)CC1 [Compound I-90, 4-(4-fluoro-3-(3-((1-(methoxymethyl)cyclopropyl)amino)azetidine-1-carbonyl)benzyl)phthalazin-1(2H)-one]
24 | 300 to 1000 | CCC(C#N)NC1CN(C(=O)c2cc(Cc3n[nH]c(=O)c4ccccc34)ccc2F)C1 (centres unmarked) [Compound I-101, 2-((1-(2-fluoro-5-((4-oxo-3,4-dihydrophthalazin-1-yl)methyl)benzoyl)azetidin-3-yl)amino)butanenitrile]
25 | 300 to 1000 | C#CCN(CC1CN(C(=O)c2cc(Cc3n[nH]c(=O)c4ccccc34)ccc2F)C1)C1CC1 [Compound I-153, 4-(3-(3-((cyclopropyl(prop-2-yn-1-yl)amino)methyl)azetidine-1-carbonyl)-4-fluorobenzyl)phthalazin-1(2H)-one]
26 | 50 to 300 | CCN(C1CC1)C1CN(C(=O)c2cc(Cc3n[nH]c(=O)c4ccccc34)ccc2F)C1 [Compound I-70, 4-(3-(3-(cyclopropyl(ethyl)amino)azetidine-1-carbonyl)-4-fluorobenzyl)phthalazin-1(2H)-one]
